Laboratory results: patent EP3034496A1, “NOVEL SOLVATES OF N-[2-[(1S)-1-(3-ETHOXY-4-METHOXYPHENYL)-2-(METHYLSULFONYL)ETHYL]-2,3-DIHYDRO-1,3-DIOXO-1H-ISOINDOL-4-YL]ACETAMIDE” (LEK Pharmaceuticals d.d., priority 2014, dated 2016)
Like-named read-outs stand apart in the source and are kept apart here.

How the values were obtained:
[1] = 90th percentile of the particle size distribution as measured by length, from WO 2009/120167 A1, cited from earlier work
[2] = cited from earlier work; for solubility in H2O: value of the organic solvent incorporated into the crystal structure, not of the crystal form
[3] = gravimetric moisture sorption desorption isotherm; assay type: physicochemical; settings: 0 to 95% relative humidity, (25.0 ± 0.1) °C
Protocol: Gravimetric moisture sorption desorption isotherm was acquired using a SPS-11 moisture sorption analyzer (MD Messtechnik, Ulm, D). The sample was weighed into an Aluminium sample holder. […] The water content of the samples was determined after the moisture sorption/ desorption experiments with a TGA 7 system (Perkin Elmer, Norwalk, Ct., USA) using the Pyris 2.0 software according to the above described method.

Which D90 ([1]; listed as C) does the source give for `CCOc1cc([C@@H](CS(C)(=O)=O)N2C(=O)c3cccc(NC(C)=O)c3C2=O)ccc1OC` [Form C, N-[2-[(1S)-1-(3-ethoxy-4-methoxyphenyl)-2-(methylsulfonyl)ethyl]-2,3-dihydro-1,3-dioxo-1H-isoindol-4-yl]acetamide] here?
Its D90 is under 12 microm.

Which D90 ([1]; listed as D) does the source give for `CCOc1cc([C@@H](CS(C)(=O)=O)N2C(=O)c3cccc(NC(C)=O)c3C2=O)ccc1OC` [Form D, N-[2-[(1S)-1-(3-ethoxy-4-methoxyphenyl)-2-(methylsulfonyl)ethyl]-2,3-dihydro-1,3-dioxo-1H-isoindol-4-yl]acetamide] here?
The D90 was under 18 microm.

Which D90 ([1]; listed as E) does the source give for `CCOc1cc([C@@H](CS(C)(=O)=O)N2C(=O)c3cccc(NC(C)=O)c3C2=O)ccc1OC` [Form E, N-[2-[(1S)-1-(3-ethoxy-4-methoxyphenyl)-2-(methylsulfonyl)ethyl]-2,3-dihydro-1,3-dioxo-1H-isoindol-4-yl]acetamide] here?
The D90 was under 18 microm.

With `CCOc1cc([C@@H](CS(C)(=O)=O)N2C(=O)c3cccc(NC(C)=O)c3C2=O)ccc1OC` [Form G, N-[2-[(1S)-1-(3-ethoxy-4-methoxyphenyl)-2-(methylsulfonyl)ethyl]-2,3-dihydro-1,3-dioxo-1H-isoindol-4-yl]acetamide] as the molecule, how does the D90 ([1]; listed as G) read?
The D90 was under 18 microm.

Which results are given for `CC(C)=O` [acetone]?
solubility in water (in words) ([2]; organic solvent): freely soluble in water; solubility in H2O [2]: 100 %w/w

For `CC#N` [acetonitrile], which “solubility in H2O” value [2] is on record?
The value was 100 %w/w.

For `CCO` [ethanol], which “solubility in water (in words)” value ([2]; organic solvent) is on record?
Its value is “freely soluble in water”.

What about the “solubility in H2O” value [2] of the same molecule?
The value was 100 %w/w.

What does the source list for `CCOC(C)=O` [ethyl acetate]?
aqueous solubility / water solubility ([2]; organic solvent): 8.7 % w/w; solubility in H2O [2]: 8.7 %w/w

For `ClCCl` [methylene chloride], which “solubility in H2O” value [2] is on record?
The value was 1.6 %w/w.

With “N-[2-[(1S)-1-(3-ethoxy-4-methoxyphenyl)-2-(methylsulfonyl)ethyl]-2,3-dihydro-1,3-dioxo-1H-isoindol-4-yl]acetamide ethanol solvate” as the molecule, how does the hygroscopicity [3] read?
Its hygroscopicity is “non-hygroscopic (compounds showing a mass change of less than 2 weight% based on the weight of the compound in the range of from 0 to 95% relative humidity at (25.0 ± 0.1) °C)”.

And the mass change ([3]; based on the weight of the crystalline ethanol solvate)?
Its mass change is “less than 0.5 % w/w”.
